Entries after “also recorded” stand apart in the source; their conditions may differ.
Legend:
FTH1 = FTH1 mRNA expression in HepG2 cells (Nanostring); format: cell-based, human; conditions: 24 hours treatment
Experimental: RNA Isolation and Quantification of Gene Expression
HepG2 cells were seeded at 250 k/well in 12-well tissue culture plates coated with collagen (collagen I, rat tail (thin plate coating); ENZO Life Sciences) for approximately 24 hours. The seeded cells were then treated with dose titration of the compound of Example 17 or dimethyl fumarate (DMF) (a Nrf2 activator; Fisher Scientific) via media change, with biological triplicates performed for each treatment. After approximately 24 hours of treatment, cells were visually inspected to confirm that no toxicity occurred with compound treatment. The treated cells were washed with PBS, aspirated, parafilmed and frozen at −80° C. prior to RNA isolation. RNA was isolated using Machery-Nagel isolation kit (NucleoSpin® RNA: catalog 740955.250) and then quantitated using ThermoFisher Nanodrop.
RNA was diluted for Nanostring gene expression analysis. The diluted RNA at an input of 200 ng RNA was run on a Nanostring instrument, which was supported with nCounter® SPRINT Profiler System and nSolver4.0 Software, nCounter® SPRINT Cartridge, nCounter® SPRINT Reagent Pack, and nCounter® SPRINT Hybridization Buffer. Analysis was done manually using raw data obtained from nSolver4.0 Software. CLTC, POLR2A, RPL27 and TBP were used as reference genes for normalization. Data was graphed as fold change compared to DMSO treatment. […]

VCAM-1 = assay: Gene expression (VCAM-1) in primary human endothelial cells stimulated with TNFa; format: cell-based; conditions: HPAEC
Experimental: Example 150. Gene Expression in Primary Human Endothelial Cells
Inflammatory conditions in endothelial cells increase expression of adhesion molecules, such as VCAM-1, ICAM-1 and E-selectin through NF-kB signaling. HMOX1−/− endothelial cells show increased expression of VCAM-1 in response to TNF stimulation, as compared to HMOX+/+endothelial cells. See Seldon et al., J Immunol Dec. 1, 2007, 179 (11) 7840-7851.
Primary human pulmonary artery endothelial cells (HPAEC) (Lonza # CC-2530) were seeded in 12-well plates (TrueLine # TR5001) at 200 k cells per well and placed at 37° C. in 5% CO2. 18-24 hr post seeding, cells were treated with the compound of Example 17 via media change. 24 hr post treatment with the compound, cells were treated with 10 ng/mL TNFa (Invitrogen # PHC3015 in H2O) alone or with the compound of Example 17. […] 20 ng cDNA was mixed with water, iQ™ SYBR® Green Supermix (BioRad #170-8886), and 300 nM primer (IDT # NM_001078) for a total 10 ul reaction and loaded into 384-well white qPCR plates and subsequently analyzed using BioRad CFX384. […] To calculate fold change, the ΔCt on a per sample basis was calculated as Ct (Gene of interest)−Ct (Average of reference genes). The ΔΔCt was then calculated as ΔCt (experimental sample)−Average ΔCt (control group). Fold change was calculated as 2^−ΔΔCT.

[1] = PD study: compound concentration in mouse liver; format: in vivo, C57BL/6 mice; conditions: male, C57BL/6, mouse, 50 mg/kg, 50 mpk oral
Experimental: 9-10 week old male C57BL/6 mice were dosed orally with 50 mg/kg of vehicle or compound formulated in 5% w/v tween 80 and 0.5% methyl cellulose. At indicated time points (3 and 6 hours or or 4 and 8 hours post-dosing as shown in the results below), whole blood was collected, animal was sacrificed and liver was collected. Blood samples were transferred to vials containing 4 μL of 10% w/v EDTA, centrifuged at 6000 rpm for 8 in below 10° C. to obtain plasma. Samples were frozen and later processed for HMOX1 protein levels as indicated below: […]

HbSS Townes sickle mice = assay: F-cells (HbF-containing red blood cells) in HbSS Townes sickle mice; format: in vivo
From the text: Blood smears were made using heparinized whole blood for F-cells staining. Stained F-cells and total red blood cells were counted on the blood smears in four fields; mean=77 red blood cells/field. F-cells are expressed as a percentage of total red blood cells. Values are means+SD. One-Way ANOVA with Dunnett's Multiple comparison to Vehicle **p≤0.01, ***p≤0.001, ****p≤0.0001
Dosing Scheme of HMOX Inducers to HbSS Townes Sickle Mice
HbSS Townes sickle mice were oral gavaged once daily with Vehicle or the compound of Example 17 listed below for 8 days. To minimize experimental inconsistency, fresh formulation was prepared every day and vortexed prior to drawing test article into syringe for each dosing, and dosing was performed by the same individual throughout the day. The last-day dose was administered by oral gavage 4 hours prior to hemin infusion described below. • 1. […]
F-cells were stained on whole blood smears by the Kleihauer-Betke method using a fetal cell stain kit (Simmler) according to the manufacturer's instructions. F-cells and total erythrocytes were counted in 4 separate microscopic fields at 100× magnification for each mouse. The F-cells were expressed as a percentage of total erythrocytes (i.e., red blood cells). […]

- concentration at 4 h ([1]; 4 hours (Study 702), read-out: Liver Conc uM (4 h)): 11 µM
- concentration at 8 h ([1]; 8 hours (Study 702), read-out: Liver Conc uM (8 h)): 4.9 µM
Compound: Cn1c(Nc2nc3ccccc3o2)nc2cc(C(=O)NCCOCCO)ccc21 [Example 17, 2-(benzo[d]oxazol-2-ylamino)-N-(2-(2-hydroxyethoxy)ethyl)-1-methyl-1H-benzo[d]imidazole-5-carboxamide]
- FTH1 expression fold increase (in words) (FTH1): comparable fold increases
- TNF-α mediated endothelial cell activation / VCAM-1 expression (in words) (VCAM-1; 24 hr pre-treatment, 10 ng/mL TNFa 4 hours): reduced this TNF-α mediated endothelial cell activation
- toxicity by visual inspection of cells (VCAM-1; after 4 hours of TNFa treatment): no toxicity
- percent F-cells compared with vehicle (in words) (HbSS Townes sickle mice; 10, 25, 50 mg/kg PO once daily for 8 days): significantly increased; also recorded: more than doubled; also recorded: did not appear to be dose responsive; also recorded: increase
- percent F-cells (of total red blood cells) (HbSS Townes sickle mice; all doses tested (10, 25, 50 mg/kg PO, 8 days)): 55-70%

— patent publication US10766888B1, “HMOX1 inducers” (Mitobridge Inc., priority 2019, dated 2020)
